Data: PMC10945555, “Improving Activity of New Arylurea Agents against Multidrug-Resistant and Biofilm-Producing Staphylococcus epidermidis” (ACS Medicinal Chemistry Letters, 2024)
≈ marks a conversion by molar mass, not a printed value. Like-named read-outs stand apart in the source and are kept apart here.

Columns and labels:
[1] = tested on: clinical MDR Staphylococcus epidermidis isolates; assay: MIC, broth microdilution, 81 clinical MDR strains; assay type: cell-based
In short: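 MICs were determined by twofold broth microdilution in cation-adjusted Mueller-Hinton II broth per EUCAST, over 50–0.1 µg/mL, in duplicate. Compounds were tested as free bases dissolved in DMSO; MIC50 and MIC90 were derived across the 81 clinical MDR S. epidermidis strains.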

horse red blood cells = assay: Hemolytic activity assay
Description: 2.3.3 Hemolytic activity assay
The hemolytic properties of tested compound were evaluated according to previously reported procedure.6 Defibrinated horse red blood cells purchased from Thermo Fisher Scientific (Germany) were washed with PBS (3000 rpm, 10 min at 4 °C) for three times followed by PBS dilution to obtain a 8% suspension. Then, 100 μL of the resulting suspensions […]
were treated with 100 μL of tested compound at the final concentration of 200 μM, and incubated at 37 °C for 1 h. Triton X-100 (2%) and PBS were used as positive and negative controls, respectively. After centrifugation at 3000 rpm for 3 min, 100 μL of the supernatants were transferred to a 96 well microtiter plate and the hemoglobin release was determined in a SpectraMax iD3 reader (Molecular Devices) by absorption at 540 nm. […]

Structure (SMILES): O=C(Nc1cccc(Cl)c1)NC1CCN(CCC(Oc2ccc(C(F)(F)F)cc2)c2cccs2)CC1 (stereo not shown) [Compound 25]
- MIC ([1]; Staphylococcus epidermidis, clinical strain 42 (Table S5), read-out: MIC): 0.8 mg/L (≈ 1.49 µM)
- MIC ([1]; Staphylococcus epidermidis, clinical strain 43 (Table S2), read-out: MIC): 1.6 mg/L (≈ 2.97 µM)
- MIC ([1]; Staphylococcus epidermidis, clinical strain 43 (Table S5), read-out: MIC): 1.6 mg/L (≈ 2.97 µM)
- MIC ([1]; Staphylococcus epidermidis, clinical strain 44 (Table S2), read-out: MIC): 1.6 mg/L (≈ 2.97 µM)
- MIC ([1]; Staphylococcus epidermidis, clinical strain 44 (Table S5), read-out: MIC): 1.6 mg/L (≈ 2.97 µM)
- MIC ([1]; Staphylococcus epidermidis, clinical strain 45 (Table S2), read-out: MIC): 1.6 mg/L (≈ 2.97 µM)
- MIC ([1]; Staphylococcus epidermidis, clinical strain 45 (Table S5), read-out: MIC): 1.6 mg/L (≈ 2.97 µM)
- MIC ([1]; Staphylococcus epidermidis, clinical strain 46 (Table S2), read-out: MIC): 1.6 mg/L (≈ 2.97 µM)
- MIC ([1]; Staphylococcus epidermidis, clinical strain 46 (Table S5), read-out: MIC): 0.8 mg/L (≈ 1.49 µM)
- MIC ([1]; Staphylococcus epidermidis, clinical strain 47 (Table S2), read-out: MIC): 1.6 mg/L (≈ 2.97 µM)
- MIC ([1]; Staphylococcus epidermidis, clinical strain 47 (Table S5), read-out: MIC): 1.6 mg/L (≈ 2.97 µM)
- MIC ([1]; Staphylococcus epidermidis, clinical strain 48 (Table S2), read-out: MIC): 1.6 mg/L (≈ 2.97 µM)
- MIC ([1]; Staphylococcus epidermidis, clinical strain 48 (Table S5), read-out: MIC): 1.6 mg/L (≈ 2.97 µM)
- MIC ([1]; Staphylococcus epidermidis, clinical strain 49 (Table S2), read-out: MIC): 0.1 mg/L (≈ 0.186 µM)
- MIC ([1]; Staphylococcus epidermidis, clinical strain 49 (Table S5), read-out: MIC): 0.1 mg/L (≈ 0.186 µM)
- MIC ([1]; Staphylococcus epidermidis, clinical strain 50 (Table S2), read-out: MIC): 3.12 mg/L (≈ 5.81 µM)
- MIC ([1]; Staphylococcus epidermidis, clinical strain 50 (Table S5), read-out: MIC): 3.12 mg/L (≈ 5.81 µM)
- MIC ([1]; Staphylococcus epidermidis, clinical strain 51 (Table S2), read-out: MIC): 3.12 mg/L (≈ 5.81 µM)
- MIC ([1]; Staphylococcus epidermidis, clinical strain 51 (Table S5), read-out: MIC): 3.12 mg/L (≈ 5.81 µM)
- MIC ([1]; Staphylococcus epidermidis, clinical strain 52 (Table S2), read-out: MIC): 3.12 mg/L (≈ 5.81 µM)
- MIC ([1]; Staphylococcus epidermidis, clinical strain 52 (Table S5), read-out: MIC): 3.12 mg/L (≈ 5.81 µM)
- MIC ([1]; Staphylococcus epidermidis, clinical strain 53 (Table S2), read-out: MIC): 3.12 mg/L (≈ 5.81 µM)
- MIC ([1]; Staphylococcus epidermidis, clinical strain 53 (Table S5), read-out: MIC): 3.12 mg/L (≈ 5.81 µM)
- MIC ([1]; Staphylococcus epidermidis, clinical strain 54 (Table S2), read-out: MIC): 0.8 mg/L (≈ 1.49 µM)
- MIC ([1]; Staphylococcus epidermidis, clinical strain 54 (Table S5), read-out: MIC): 0.8 mg/L (≈ 1.49 µM)
- MIC ([1]; Staphylococcus epidermidis, clinical strain 55 (Table S2), read-out: MIC): 3.12 mg/L (≈ 5.81 µM)
- MIC ([1]; Staphylococcus epidermidis, clinical strain 55 (Table S5), read-out: MIC): 3.12 mg/L (≈ 5.81 µM)
- MIC ([1]; Staphylococcus epidermidis, clinical strain 56 (Table S2), read-out: MIC): 1.6 mg/L (≈ 2.97 µM)
- MIC ([1]; Staphylococcus epidermidis, clinical strain 56 (Table S5), read-out: MIC): 1.6 mg/L (≈ 2.97 µM)
- MIC ([1]; Staphylococcus epidermidis, clinical strain 57 (Table S2), read-out: MIC): 3.12 mg/L (≈ 5.81 µM)
- MIC ([1]; Staphylococcus epidermidis, clinical strain 57 (Table S5), read-out: MIC): 3.12 mg/L (≈ 5.81 µM)
- MIC ([1]; Staphylococcus epidermidis, clinical strain 58 (Table S2), read-out: MIC): 0.8 mg/L (≈ 1.49 µM)
- MIC ([1]; Staphylococcus epidermidis, clinical strain 58 (Table S5), read-out: MIC): 0.8 mg/L (≈ 1.49 µM)
- MIC ([1]; Staphylococcus epidermidis, clinical strain 59 (Table S2), read-out: MIC): 3.12 mg/L (≈ 5.81 µM)
- MIC ([1]; Staphylococcus epidermidis, clinical strain 59 (Table S5), read-out: MIC): 3.12 mg/L (≈ 5.81 µM)
- MIC ([1]; Staphylococcus epidermidis, clinical strain 60 (Table S2), read-out: MIC): 3.12 mg/L (≈ 5.81 µM)
- MIC ([1]; Staphylococcus epidermidis, clinical strain 60 (Table S5), read-out: MIC): 3.12 mg/L (≈ 5.81 µM)
- MIC ([1]; Staphylococcus epidermidis, clinical strain 61 (Table S2), read-out: MIC): 1.6 mg/L (≈ 2.97 µM)
- MIC ([1]; Staphylococcus epidermidis, clinical strain 61 (Table S5), read-out: MIC): 1.6 mg/L (≈ 2.97 µM)
- MIC ([1]; Staphylococcus epidermidis, clinical strain 62 (Table S2), read-out: MIC): 1.6 mg/L (≈ 2.97 µM)
- MIC ([1]; Staphylococcus epidermidis, clinical strain 62 (Table S5), read-out: MIC): 1.6 mg/L (≈ 2.97 µM)
- MIC ([1]; Staphylococcus epidermidis, clinical strain 63 (Table S2), read-out: MIC): 1.6 mg/L (≈ 2.97 µM)
- MIC ([1]; Staphylococcus epidermidis, clinical strain 63 (Table S5), read-out: MIC): 1.6 mg/L (≈ 2.97 µM)
- MIC ([1]; Staphylococcus epidermidis, clinical strain 64 (Table S2), read-out: MIC): 3.12 mg/L (≈ 5.81 µM)
- MIC ([1]; Staphylococcus epidermidis, clinical strain 64 (Table S5), read-out: MIC): 3.12 mg/L (≈ 5.81 µM)
- MIC ([1]; Staphylococcus epidermidis, clinical strain 65 (Table S2), read-out: MIC): 3.12 mg/L (≈ 5.81 µM)
- MIC ([1]; Staphylococcus epidermidis, clinical strain 65 (Table S5), read-out: MIC): 3.12 mg/L (≈ 5.81 µM)
- MIC ([1]; Staphylococcus epidermidis, clinical strain 66 (Table S2), read-out: MIC): 1.6 mg/L (≈ 2.97 µM)
- MIC ([1]; Staphylococcus epidermidis, clinical strain 66 (Table S5), read-out: MIC): 1.6 mg/L (≈ 2.97 µM)
- MIC ([1]; Staphylococcus epidermidis, clinical strain 67 (Table S2), read-out: MIC): 3.12 mg/L (≈ 5.81 µM)
- MIC ([1]; Staphylococcus epidermidis, clinical strain 67 (Table S5), read-out: MIC): 3.12 mg/L (≈ 5.81 µM)
- MIC ([1]; Staphylococcus epidermidis, clinical strain 68 (Table S2), read-out: MIC): 3.12 mg/L (≈ 5.81 µM)
- MIC ([1]; Staphylococcus epidermidis, clinical strain 68 (Table S5), read-out: MIC): 3.12 mg/L (≈ 5.81 µM)
- MIC ([1]; Staphylococcus epidermidis, clinical strain 69 (Table S2), read-out: MIC): 1.6 mg/L (≈ 2.97 µM)
- MIC ([1]; Staphylococcus epidermidis, clinical strain 69 (Table S5), read-out: MIC): 1.6 mg/L (≈ 2.97 µM)
- MIC ([1]; Staphylococcus epidermidis, clinical strain 70 (Table S2), read-out: MIC): 3.12 mg/L (≈ 5.81 µM)
- MIC ([1]; Staphylococcus epidermidis, clinical strain 70 (Table S5), read-out: MIC): 3.12 mg/L (≈ 5.81 µM)
- MIC ([1]; Staphylococcus epidermidis, clinical strain 71 (Table S2), read-out: MIC): 1.6 mg/L (≈ 2.97 µM)
- MIC ([1]; Staphylococcus epidermidis, clinical strain 71 (Table S5), read-out: MIC): 1.6 mg/L (≈ 2.97 µM)
- MIC ([1]; Staphylococcus epidermidis, clinical strain 72 (Table S2), read-out: MIC): 3.12 mg/L (≈ 5.81 µM)
- MIC ([1]; Staphylococcus epidermidis, clinical strain 72 (Table S5), read-out: MIC): 3.12 mg/L (≈ 5.81 µM)
- MIC ([1]; Staphylococcus epidermidis, clinical strain 73 (Table S2), read-out: MIC): 0.4 mg/L (≈ 0.743 µM)
- MIC ([1]; Staphylococcus epidermidis, clinical strain 73 (Table S5), read-out: MIC): 0.4 mg/L (≈ 0.743 µM)
- MIC ([1]; Staphylococcus epidermidis, clinical strain 74 (Table S2), read-out: MIC): 3.12 mg/L (≈ 5.81 µM)
- MIC ([1]; Staphylococcus epidermidis, clinical strain 74 (Table S5), read-out: MIC): 3.12 mg/L (≈ 5.81 µM)
- MIC ([1]; Staphylococcus epidermidis, clinical strain 75 (Table S2), read-out: MIC): 3.12 mg/L (≈ 5.81 µM)
- MIC ([1]; Staphylococcus epidermidis, clinical strain 75 (Table S5), read-out: MIC): 3.12 mg/L (≈ 5.81 µM)
- MIC ([1]; Staphylococcus epidermidis, clinical strain 76 (Table S2), read-out: MIC): 1.6 mg/L (≈ 2.97 µM)
- MIC ([1]; Staphylococcus epidermidis, clinical strain 76 (Table S5), read-out: MIC): 1.6 mg/L (≈ 2.97 µM)
- MIC ([1]; Staphylococcus epidermidis, clinical strain 77 (Table S2), read-out: MIC): 3.12 mg/L (≈ 5.81 µM)
- MIC ([1]; Staphylococcus epidermidis, clinical strain 77 (Table S5), read-out: MIC): 3.12 mg/L (≈ 5.81 µM)
- MIC ([1]; Staphylococcus epidermidis, clinical strain 78 (Table S2), read-out: MIC): 1.6 mg/L (≈ 2.97 µM)
- MIC ([1]; Staphylococcus epidermidis, clinical strain 78 (Table S5), read-out: MIC): 1.6 mg/L (≈ 2.97 µM)
- MIC ([1]; Staphylococcus epidermidis, clinical strain 79 (Table S2), read-out: MIC): 0.4 mg/L (≈ 0.743 µM)
- MIC ([1]; Staphylococcus epidermidis, clinical strain 79 (Table S5), read-out: MIC): 0.4 mg/L (≈ 0.743 µM)
- MIC ([1]; Staphylococcus epidermidis, clinical strain 80 (Table S2), read-out: MIC): 3.12 mg/L (≈ 5.81 µM)
- MIC ([1]; Staphylococcus epidermidis, clinical strain 80 (Table S5), read-out: MIC): 3.12 mg/L (≈ 5.81 µM)
- MIC ([1]; Staphylococcus epidermidis, clinical strain 81 (Table S2), read-out: MIC): 0.2 mg/L (≈ 0.372 µM)
- MIC ([1]; Staphylococcus epidermidis, clinical strain 81 (Table S5), read-out: MIC): 0.2 mg/L (≈ 0.372 µM)
- MIC ([1]; Staphylococcus epidermidis, mean of MIC values against clinical MDR-SE isolates, read-out: mean MIC): 1.76 mg/L (≈ 3.27 µM)
- MIC50 ([1]; Staphylococcus epidermidis, 81 clinical strains, concentration inhibiting growth of 50% clinical isolates): 1.6 mg/L (≈ 2.97 µM)
- MIC90 ([1]; Staphylococcus epidermidis, 81 clinical strains, concentration inhibiting growth of 90% of clinical isolates): 3.12 mg/L (≈ 5.81 µM)
- category according to EUCAST clinical breakpoints for linezolid ([1]; all reference and clinical MDR S. epidermidis strains): within the susceptible category
- %hem (hemolytic activity) (horse red blood cells; 200 μM, 1 h, n = 3): 0.54%
- lysis of erythrocytes (horse red blood cells; concentrations up to 200 μM): None of them caused lysis of erythrocytes
